Drawing on US6509328B1, “Glutamate receptor antagonists” (Hoffmann-La Roche Inc., priority 1999, dated 2003), this text covers melting point for 34 compounds.

Usually melting point stands for the temperature of the solid-liquid transition.

Each structure is given as a SMILES string.

Turning to `O=C1CC(c2cccc(-n3cnnn3)c2)=Nc2ccc(-c3ccccc3F)cc2N1` [Example 88, 8-(2-Fluoro-phenyl)-4-(3-tetrazol-1-yl-phenyl)-1,3-dihydro-benzo [b][1,4]diazepin-2-one], the melting point lay within 179 to 180 °C.
The result for `N#Cc1cccc(C2=Nc3ccc(-c4cc(F)ccc4F)cc3NC(=O)C2)c1` [Example 125, 3-[7-(2,5-Difluoro-phenyl)-4-oxo-4,5-dihydro-3H-benzo [b][1,4]diazepin-2-yl]-benzonitrile] reads 247 °C.
The result for `N#Cc1cccc(C2=Nc3ccc(C#Cc4ccc(F)cc4F)cc3NC(=O)C2)c1` [Example 130, 3-[7-(2,4-Difluoro-phenylethynyl)-4-oxo-4,5-dihydro-3H-benzo [b][1,4]diazepin-2-yl]-benzonitrile] reads 240 to 246 °C; that for `CS(=O)(=O)N1CC=C(C#Cc2ccc3c(c2)NC(=O)CC(c2cccc(C#N)c2)=N3)CC1` [Example 142, 3-[7-(1-Methanesulfonyl-1,2,3,6-tetrahydro-pyridin-4-ylethynyl)-4-oxo-4,5-dihydro-3H-benzo[b][1,4]diazepin-2-yl]-benzonitrile], 235 °C; that for `O=C1CC(c2cccs2)=Nc2ccc(-c3ccc(=O)[nH]c3)cc2N1` [Example 41, 8-(6-Oxo-1,6-dihydro-pyridin-3-yl)-4-thiophen-2-yl-1,3-dihydro-benzo [b][1,4]diazepin-2-one], greater than 250 °C.
Regarding `Cc1csc(-c2cccc(C3=Nc4ccc(-c5ccc(F)cc5)cc4NC(=O)C3)c2)n1` [Example 152, 8-(4-Fluoro-phenyl)-4-[3-(4-methyl-thiazol-2-yl)-phenyl]-1,3-dihydro-benzo [b][1,4]diazepin-2-one], the melting point was 259 to 261 °C (dec.).
The compound `N#Cc1cc(C2=Nc3ccc(C4CC4)cc3NC(=O)C2)ccn1` [Example 112, 4-(7-Cyclopropyl-4-oxo-4,5-dihydro-3H-benzo[b][1,4]diazepin-2-yl)-pyridine-2-carbonitrile] yielded a melting point of 227 to 230 °C.
The result for `N#Cc1cccc(C2=Nc3ccc(C#CC4=CCNCC4)cc3NC(=O)C2)c1` [Example 140, 3-[4-Oxo-7-(1,2,3,6-tetrahydro-pyridin-4-ylethynyl)-4,5-dihydro-3H-benzo [b][1,4]diazepin-2-yl]-benzonitrile] reads 184 °C.
In the case of `Cc1nc(-c2cccc(C3=Nc4ccc(-c5ccc(F)cc5)cc4NC(=O)C3)c2)sc1C(=O)NCCO` [Example 162, 2-{3-[7-(4-Fluoro-phenyl)-4-oxo-4,5-dihydro-3H-benzo [b][1,4]diazepin-2-yl]-phenyl}-4-methyl-thiazole-5-carboxylic Acid (2-hydroxy-ethyl)-amide], the melting point was 248 to 251 °C (dec.).
`N#Cc1ccc(C2=Nc3ccc(-c4ccccc4F)cc3NC(=O)C2)s1` [Example 100, 5-[7-(2-Fluoro-phenyl)-4-oxo-4,5-dihydro-3H-benzo [b][1,4]diazepin-2-yl]-thiophene-2-carbonitrile] returned a melting point greater than 250 °C.
The result for `O=C1CC(c2cccc(I)c2)=Nc2ccc(C#Cc3ccccc3)cc2N1` [Example 11, 4-(3-Iodo-phenyl)-8-phenylethynyl-1,3-dihydro-benzo[b][1,4]diazepin-2-one] reads 227 to 229 °C (dec.).
The result for `CC(C)(C)C(=O)N1CC=C(C#Cc2ccc3c(c2)NC(=O)CC(c2cccc(C#N)c2)=N3)CC1` [Example 143, 3-{7-[1-(2,2-Dimethyl-propionyl)-1,2,3,6-tetrahydro-pyridin-4-ylethynyl]-4-oxo-4,5-dihydro-3H-benzo [b][1,4]diazepin-2-yl}-benzonitrile] reads 219 °C; that for `COc1ccc(-c2ccc3c(c2)NC(=O)CC(c2cccc(C#N)c2)=N3)cc1` [Example 6, 3-[7-(4-Methoxy-phenyl)-4-oxo-4,5-dihydro-3H-benzo[b][1,4]diazepin-2-yl]-benzonitrile], 236 to 237 °C (dec.); that for `O=C1CC(c2ccnc(-c3nc(CO)cs3)c2)=Nc2ccc(-c3ccc(F)cc3)cc2N1` [Example 158, 8-(4-Fluoro-phenyl)-4-[2-(4-hydroxymethyl-thiazol-2-yl)-pyridin-4-yl]-1,3-dihydro-benzo[b][1,4]diazepin-2-one], 225 to 229 °C.
The result for `N#Cc1cccc(C2=Nc3ccc(C(=O)c4ccccc4)cc3NC(=O)C2)c1` [Example 36, 3-(7-Benzoyl-4-oxo-4,5-dihydro-3H-benzo [b][1,4]diazepin-2-yl)-benzonitrile] reads 207 °C (dec.).
On to `N#Cc1cccc(C2=Nc3ccc(-c4ccc(OC(F)(F)F)cc4)cc3NC(=O)C2)c1` [Example 43, 3-[4-Oxo-7-(4-trifluoromethoxy-phenyl)-4,5-dihydro-3H-benzo [b][1,4]diazepin-2-yl]-benzonitrile], for which the melting point is 237 to 241 °C (dec.).
Turning to `N#Cc1cccc(C2=Nc3ccc(-c4cccc(F)c4F)cc3NC(=O)C2)c1` [Example 51, 3-[7-(2,3-Difluoro-phenyl)-4-oxo-4,5-dihydro-3H-benzo [b][1,4]diazepin-2-yl]-benzonitrile], the melting point is 240 °C.
The result for `O=C1CC(c2cccc(-c3noc(CCCO)n3)c2)=Nc2ccc(-c3ccc(F)cc3)cc2N1` [Example 168, 8-(4-Fluoro-phenyl)-4-{3-[5-(3-hydroxy-propyl)-[1,2,4]oxadiazol-3-yl]-phenyl}-1,3-dihydro-benzo[b][1,4]diazepin-2-one] reads 220 to 222 °C; that for `N#Cc1cccc(C2=Nc3ccc(-c4ccc(Cl)cc4)cc3NC(=O)C2)c1` [Example 15, 3-[7-(4-Chloro-phenyl)-4-oxo-4,5-dihydro-3H-benzo[b][1,4]diazepin-2-yl]-benzonitrile], 244 to 250 °C (dec.); that for `Cc1nccn1-c1cccc(C2=Nc3ccc(-c4ccccc4F)cc3NC(=O)C2)c1` [Example 81, 8-(2-Fluoro-phenyl)-4-[3-(2-methyl-imidazol-1-yl)-phenyl]-1,3-dihydro-benzo[b][1,4]diazepin-2-one], 187 °C.
The result for `CCOC(=O)c1csc(-c2cc(C3=Nc4ccc(-c5ccc(F)cc5)cc4NC(=O)C3)ccn2)n1` [Example 155, 2-{4-[7-(4-Fluoro-phenyl)-4-oxo-4,5-dihydro-3H-benzo[b][1,4]diazepin-2-yl]-pyridin-2-yl}-thiazole-4-carboxylic Acid Ethyl Ester] reads 238 to 240 °C (dec.).
The result for `Cc1noc(-c2cccc(C3=Nc4ccc(-c5ccc(F)cc5)cc4NC(=O)C3)c2)n1` [Example 169, 8-(4-Fluoro-phenyl)-4-[3-(3-methyl-[1,2,4]oxadiazol-5-yl)-phenyl]-1,3-dihydro-benzo[b][1,4]diazepin-2-one] reads 266 to 268 °C; that for `Cc1ccc(-c2ccc3c(c2)NC(=O)CC(c2cccc(C#N)c2)=N3)cc1` [Example 22, 3-(4-Oxo-7-p-tolyl-4,5-dihydro-3H-benzo[b][1,4]diazepin-2-yl)-benzonitrile], 242 to 245 °C (dec.); that for `CCOC(=O)c1csc(-c2cccc(C3=Nc4ccc(-c5ccc(F)cc5)cc4NC(=O)C3)c2)n1` [Example 153, 2-{3-[7-(4-Fluoro-phenyl)-4-oxo-4,5-dihydro-3H-benzo [b][1,4]diazepin-2-yl]-phenyl}-thiazole-4-carboxylic Acid Ethyl Ester], 236 to 238 °C (dec.).
Regarding `N#Cc1cccc(C2=Nc3ccc(C#Cc4cccs4)cc3NC(=O)C2)c1` [Example 50, 3-(4-Oxo-7-thiophen-2-ylethynyl-4,5-dihydro-3H-benzo [b][1,4]diazepin-2-yl)-benzonitrile], the melting point is 235 to 238 °C (dec.).
In the case of `O=C1CC(c2cccc(-n3ccnc3)c2)=Nc2ccc(-c3ccc(OCc4ccccc4)nc3)cc2N1` [Example 74, 8-(6-Benzyloxy-pyridin-3-yl)-4-(3-imidazol-1-yl-phenyl)-1,3-dihydro-benzo [b][1,4]-diazepin-2-one], the melting point was in the range of 225 to 231 °C.
The result for `CS(=O)(=O)Nc1cccc(C2=Nc3ccc(-c4ccc(F)cc4)cc3NC(=O)C2)c1` [Example 73, N-{3-[7-(4-Fluoro-phenyl)-4-oxo-4,5-dihydro-3H-benzo [b][1,4]diazepin-2-yl]-phenyl}-methanesulfonamide] reads 232 to 235 °C; that for `Nc1cccc(C2=Nc3ccc(-c4ccc(F)cc4)cc3NC(=O)C2)c1` [Example 70, 4-(3-Amino-phenyl)-8-(4-fluoro-phenyl)-1,3-dihydro-benzo [b][1,4]diazepin-2-one], 210 to 217 °C (dec.); that for `O=C1CC(c2cccc(Cl)c2)=Nc2ccc(-c3ccccc3)cc2N1` [Example 19, 4-(3-Chloro-phenyl)-8-phenyl-1,3-dihydro-benzo[b][1,4]diazepin-2-one], 208 °C (dec.).
The result for `O=C1CC(c2cccc(-n3cnnc3)c2)=Nc2ccc(-c3ccccc3F)cc2N1` [Example 99, 8-(2-Fluoro-phenyl)-4-(3-[1,2,4]triazol-4-yl-phenyl)-1,3-dihydro-benzo [b][1,4]diazepin-2-one] reads 198 °C.
The result for `N#Cc1cccc(C2=Nc3ccc(-c4ccncc4)cc3NC(=O)C2)c1` [Example 44, 3-(4-Oxo-7-pyridin-4-yl-4,5-dihydro-3H-benzo[b][1,4]diazepin-2-yl)-benzonitrile] reads > 200 °C (dec.); that for `N#Cc1cccc(C2=Nc3ccc(-c4ccco4)cc3NC(=O)C2)c1` [Example 8, 3-(7-Furan-2-yl-4-oxo-4,5-dihydro-3H-benzo[b][1,4]diazepin-2-yl)-benzonitrile], 205 to 210 °C (dec.); that for `CN1CCN(C(=O)c2cccc(C3=Nc4ccc(C#Cc5ccccc5)cc4NC(=O)C3)c2)CC1` [Example 147, 4-[3-(4-Methyl-piperazine-1-carbonyl)-phenyl]-8-phenylethynyl-1,3-dihydro-benzo[b][1,4]diazepin-2-one], 168 to 172 °C (dec.).
Regarding `N#Cc1cccc(C2=Nc3ccc(C#Cc4ccc(Cl)cc4)cc3NC(=O)C2)c1` [Example 16, 3-[7-(4-Chloro-phenylethynyl)-4-oxo-4,5-dihydro-3H-benzo[b][1,4]diazepin-2-yl]-benzonitrile], the melting point is 237 to 240 °C (dec.).
